The conditions of the data set: amide bond, 33-membered ring, BOP/DMAP.

This passage reports ring closure, isolated yield results from patent US5079341.

Each structure is given as a SMILES string. Like-named read-outs stand apart in the source and are kept apart here.

In the case of `CCCC[C@@H]1NC(=O)[C@@H]2C[C@@H](O)CN2C(=O)[C@H](C(C)C)N(C)C(=O)[C@H](CC(C)C)N(C)C(=O)[C@H](CC(C)C)N(C)C(=O)[C@@H](C)NC(=O)[C@H](C)NC(=O)[C@H](CC(C)C)N(C)C(=O)[C@H](C(C)C)NC(=O)[C@H](CC(C)C)N(C)C(=O)CN(C)C1=O`, where the note is “from H-Hyp-Nle-Sar-MeLeu-Val-MeLeu-Ala-dAla-MeLeu-MeLeu-MeVal-OH, CH2Cl2, 0.4 mM”, the ring closure, isolated yield is 26%. For the molecule `CC[C@@H]1NC(=O)[C@H](CCNC(=O)OCC2c3ccccc3-c3ccccc32)NC(=O)[C@H](C(C)C)N(C)C(=O)[C@H](CC(C)C)N(C)C(=O)[C@H](CC(C)C)N(C)C(=O)[C@@H](C)NC(=O)[C@H](C)NC(=O)[C@H](CC(C)C)N(C)C(=O)[C@H](C(C)C)NC(=O)[C@H](CC(C)C)N(C)C(=O)CN(C)C1=O`, the ring closure, isolated yield (from H-Dab(Fmoc)-Abu-Sar-MeLeu-Val-MeLeu-Ala-dAla-MeLeu-MeLeu-MeVal-OH, CH2Cl2, 0.165 mM) stood at 37%. Turning to `CC[C@@H]1NC(=O)[C@@H]2C[C@@H](O)CN2C(=O)[C@H](C(C)C)N(C)C(=O)[C@H](CC(C)C)N(C)C(=O)[C@H](CC(C)C)N(C)C(=O)[C@@H](C)NC(=O)[C@H](C)NC(=O)[C@H](CC(C)C)N(C)C(=O)[C@H](C(C)C)NC(=O)[C@H](CC(C)C)N(C)C(=O)CN(C)C1=O`, the ring closure, isolated yield (from H-Hyp-Abu-Sar-MeLeu-Val-MeLeu-Ala-dAla-MeLeu-MeLeu-MeVal-OH, CH2Cl2, 0.35 mM) was 30%. Turning to `CC[C@@H]1NC(=O)[C@H](CO)N(C)C(=O)[C@H](C(C)C)N(C)C(=O)[C@H](CC(C)C)N(C)C(=O)[C@H](CC(C)C)N(C)C(=O)[C@@H](C)NC(=O)[C@H](C)NC(=O)[C@H](CC(C)C)N(C)C(=O)[C@H](C(C)C)NC(=O)[C@H](CC(C)C)N(C)C(=O)CN(C)C1=O`, the ring closure, isolated yield (from H-MeSer-Abu-Sar-MeLeu-Val-MeLeu-Ala-dAla-MeLeu-MeLeu-MeVal-OH, CH2Cl2, 0.176 mM) worked out at 15%. Where the note is “from H-MeSer-Nva-Sar-MeLeu-Val-MeLeu-Ala-dAla-MeLeu-MeLeu-MeVal-OH, CH2Cl2/THF 1:1, 3.9 mM”, `CCC[C@@H]1NC(=O)[C@H](CO)N(C)C(=O)[C@H](C(C)C)N(C)C(=O)[C@H](CC(C)C)N(C)C(=O)[C@H](CC(C)C)N(C)C(=O)[C@@H](C)NC(=O)[C@H](C)NC(=O)[C@H](CC(C)C)N(C)C(=O)[C@H](C(C)C)NC(=O)[C@H](CC(C)C)N(C)C(=O)CN(C)C1=O` displayed a ring closure, isolated yield of 20%. As to `CCCC[C@@H]1NC(=O)[C@H](CO)N(C)C(=O)[C@H](C(C)C)N(C)C(=O)[C@H](CC(C)C)N(C)C(=O)[C@H](CC(C)C)N(C)C(=O)[C@@H](C)NC(=O)[C@H](C)NC(=O)[C@H](CC(C)C)N(C)C(=O)[C@H](C(C)C)NC(=O)[C@H](CC(C)C)N(C)C(=O)CN(C)C1=O`, where the note is “from H-MeSer-Nle-Sar-MeLeu-Val-MeLeu-Ala-dAla-MeLeu-MeLeu-MeVal-OH, THF/CH2Cl2 1:1, 0.433 mM”, the ring closure, isolated yield came to 16%.

`CCCC[C@@H]1NC(=O)[C@H]([C@@H](C)O)N(C)C(=O)[C@H](C(C)C)N(C)C(=O)[C@H](CC(C)C)N(C)C(=O)[C@H](CC(C)C)N(C)C(=O)[C@@H](C)NC(=O)[C@H](C)NC(=O)[C@H](CC(C)C)N(C)C(=O)[C@H](C(C)C)NC(=O)[C@H](CC(C)C)N(C)C(=O)CN(C)C1=O` came in with a ring closure, isolated yield (from H-MeThr-Nle-Sar-MeLeu-Val-MeLeu-Ala-dAla-MeLeu-MeLeu-MeVal-OH, CH2Cl2, 0.325 mM) of 14%.
